Assay: Biodistribution of the nano-emulsion of Example 1.1 (radioactivity and fluorescence per organ)
Assay type: in vivo
Protocol: In the following examples, the radioactivity was counted with the TRiCarb Counter (Ref: Packard, Liquid Scintillation Analyzers; Models 2200CA).
Fluobeam 700 (Fluoptics) is the apparatus with which the whole of the organs from the biodistribution were analyzed in fluorescence as well as the one with which the biodistribution kinetics of the nano-emulsions were established in vivo. This imaging system allows viewing of the fluorescence in spectral bands from 700 to 850 nm for a 650 nm excitation. The apparatus consists of an electric case containing the laser of class 3B, its power supply and an optical head containing the CCD camera.
The nano-emulsions of Example 1 were injected into FVB female and male mice. As a comparison, a mixture of three tracers ([3H]CHE, [14C]CO and DiD) (not formulated as a nano-emulsion) was injected in order to observe the distribution of the tracers in the absence of droplets being used as a distribution carrier.
Tables 6 to 14 provide the biodistribution results of each tracer ([3H]CHE, [14C]CO and DiD) expressed as a percentage of the dose injected per gram of tissue (or [3H]CHE and [14C]CO) or as fluorescence intensity (for DiD) depending on the organ of the mouse, 15 minutes (Table 6), 2 hours (Table 7), 4 hours (Table 8), 6 hours (Table 9), 16 hours (Table 10), 24 hours (Table 11), 72 hours (Table 12), 120 hours (Table 13) and 168 hours (Table 14), after injection into an FVB female mouse of the nano-emulsion of Example 1.1. (nano-emulsion according to the invention comprising the three tracers ([3H]CHE, [14C]CO and DiD).

[1] = 15 min after injection of nano-emulsion of Example 1.1, FVB female mouse
[2] = 2 h after injection of nano-emulsion of Example 1.1, FVB female mouse
[3] = 4 h after injection of nano-emulsion of Example 1.1, FVB female mouse
[4] = 16 h (Table 9 head) after injection of nano-emulsion of Example 1.1, FVB female mouse
[5] = 24 h (Table 10 head) after injection of nano-emulsion of Example 1.1, FVB female mouse
[6] = 48 h (Table 11 head) after injection of nano-emulsion of Example 1.1, FVB female mouse
[7] = 72 h after injection of nano-emulsion of Example 1.1, FVB female mouse
[8] = 120 h after injection of nano-emulsion of Example 1.1, FVB female mouse
[9] = 168 h after injection of nano-emulsion of Example 1.1, FVB female mouse

CCCCCCCCCCCCCCCCCCN1/C(=C/C=C/C=C/C2=[N+](CCCCCCCCCCCCCCCCCC)c3ccccc3C2(C)C)C(C)(C)c2ccccc21.[O-][Cl+3]([O-])([O-])[O-] [DiD, l,r-dioctadécyl-3,3,3′,3′-tetramethylindodicarbocyanine (DiD) perchlorate]
fluorescence intensity, Adrenal glands (MEAN) [1]: 457 photons per pixel, reduced to | fluorescence intensity, Brain (MEAN) [1]: 145 photons per pixel, reduced to | fluorescence intensity, Fat (MEAN) [1]: 147 photons per pixel, reduced to | fluorescence intensity, Heart (MEAN) [1]: 451 photons per pixel, reduced to | fluorescence intensity, Intestine (MEAN) [1]: 300 photons per pixel, reduced to | fluorescence intensity, Kidney (MEAN) [1]: 228 photons per pixel, reduced to | fluorescence intensity, Liver (MEAN) [1]: 979 photons per pixel, reduced to | fluorescence intensity, Lung (MEAN) [1]: 618 photons per pixel, reduced to | fluorescence intensity, Muscle (MEAN) [1]: 1 photons per pixel, reduced to | fluorescence intensity, Ovary (MEAN) [1]: 484 photons per pixel, reduced to | fluorescence intensity, Pancreas (MEAN) [1]: 216 photons per pixel, reduced to | fluorescence intensity, Salivary glands (MEAN) [1]: 59 photons per pixel, reduced to | fluorescence intensity, Spleen (MEAN) [1]: 727 photons per pixel, reduced to | fluorescence intensity, Uterus (MEAN) [1]: 178 photons per pixel, reduced to | fluorescence intensity, Adrenal glands (MEAN) [2]: 1050 photons per pixel, reduced to | fluorescence intensity, Brain (MEAN) [2]: 250 photons per pixel, reduced to | fluorescence intensity, Fat (MEAN) [2]: 247 photons per pixel, reduced to | fluorescence intensity, Heart (MEAN) [2]: 389 photons per pixel, reduced to | fluorescence intensity, Intestine (MEAN) [2]: 637 photons per pixel, reduced to | fluorescence intensity, Kidneys (MEAN) [2]: 473 photons per pixel, reduced to | fluorescence intensity, Liver (MEAN) [2]: 1421 photons per pixel, reduced to | fluorescence intensity, Lung (MEAN) [2]: 727 photons per pixel, reduced to | fluorescence intensity, Muscle (MEAN) [2]: 213 photons per pixel, reduced to | fluorescence intensity, Ovary (MEAN) [2]: 1807 photons per pixel, reduced to | fluorescence intensity, Pancreas (MEAN) [2]: 399 photons per pixel, reduced to | fluorescence intensity, Salivary glands (MEAN) [2]: 288 photons per pixel, reduced to | fluorescence intensity, Spleen (MEAN) [2]: 805 photons per pixel, reduced to | fluorescence intensity, Uterus (MEAN) [2]: 814 photons per pixel, reduced to | fluorescence intensity, Adrenal glands (MEAN) [3]: 1754 photons per pixel, reduced to | fluorescence intensity, Brain (MEAN) [3]: 279 photons per pixel, reduced to | fluorescence intensity, Fat (MEAN) [3]: 522 photons per pixel, reduced to | fluorescence intensity, Heart (MEAN) [3]: 550 photons per pixel, reduced to | fluorescence intensity, Intestine (MEAN) [3]: 974 photons per pixel, reduced to | fluorescence intensity, Kidney (MEAN) [3]: 614 photons per pixel, reduced to | fluorescence intensity, Liver (MEAN) [3]: 1845 photons per pixel, reduced to | fluorescence intensity, Lungs (MEAN) [3]: 925 photons per pixel, reduced to | fluorescence intensity, Muscle (MEAN) [3]: 236 photons per pixel, reduced to | fluorescence intensity, Ovary (MEAN) [3]: 2781 photons per pixel, reduced to | fluorescence intensity, Pancreas (MEAN) [3]: 527 photons per pixel, reduced to | fluorescence intensity, Salivary glands (MEAN) [3]: 516 photons per pixel, reduced to | fluorescence intensity, Spleen (MEAN) [3]: 955 photons per pixel, reduced to | fluorescence intensity, Uterus (MEAN) [3]: 712 photons per pixel, reduced to | fluorescence intensity, Adrenal glands (MEAN) [4]: 2355 photons per pixel, reduced to | fluorescence intensity, Brain (MEAN) [4]: 259 photons per pixel, reduced to | fluorescence intensity, Fat (MEAN) [4]: 532 photons per pixel, reduced to | fluorescence intensity, Heart (MEAN) [4]: 444 photons per pixel, reduced to | fluorescence intensity, Intestine (MEAN) [4]: 1139 photons per pixel, reduced to | fluorescence intensity, Kidney (MEAN) [4]: 627 photons per pixel, reduced to | fluorescence intensity, Liver (MEAN) [4]: 1661 photons per pixel, reduced to | fluorescence intensity, Lungs (MEAN) [4]: 592 photons per pixel, reduced to | fluorescence intensity, Muscle (MEAN) [4]: 289 photons per pixel, reduced to | fluorescence intensity, Ovary (MEAN) [4]: 2915 photons per pixel, reduced to | fluorescence intensity, Pancreas (MEAN) [4]: 564 photons per pixel, reduced to | fluorescence intensity, Salivary glands (MEAN) [4]: 641 photons per pixel, reduced to | fluorescence intensity, Spleen (MEAN) [4]: 978 photons per pixel, reduced to | fluorescence intensity, Uterus (MEAN) [4]: 1759 photons per pixel, reduced to | fluorescence intensity, Adrenal glands (MEAN) [5]: 2624 photons per pixel, reduced to | fluorescence intensity, Brain (MEAN) [5]: 239 photons per pixel, reduced to | fluorescence intensity, Fat (MEAN) [5]: 553 photons per pixel, reduced to | fluorescence intensity, Heart (MEAN) [5]: 288 photons per pixel, reduced to | fluorescence intensity, Intestine (MEAN) [5]: 777 photons per pixel, reduced to | fluorescence intensity, Kidney (MEAN) [5]: 599 photons per pixel, reduced to | fluorescence intensity, Liver (MEAN) [5]: 1675 photons per pixel, reduced to | fluorescence intensity, Lung (MEAN) [5]: 667 photons per pixel, reduced to | fluorescence intensity, Muscle (MEAN) [5]: 161 photons per pixel, reduced to | fluorescence intensity, Ovary (MEAN) [5]: 3173 photons per pixel, reduced to | fluorescence intensity, Pancreas (MEAN) [5]: 446 photons per pixel, reduced to | fluorescence intensity, Salivary glands (MEAN) [5]: 411 photons per pixel, reduced to | fluorescence intensity, Spleen (MEAN) [5]: 774 photons per pixel, reduced to | fluorescence intensity, Uterus (MEAN) [5]: 971 photons per pixel, reduced to | fluorescence intensity, Adrenal glands (MEAN) [6]: 1484 photons per pixel, reduced to | fluorescence intensity, Brain (MEAN) [6]: 51 photons per pixel, reduced to | fluorescence intensity, Fat (MEAN) [6]: 208 photons per pixel, reduced to | fluorescence intensity, Heart (MEAN) [6]: 122 photons per pixel, reduced to | fluorescence intensity, Intestine (MEAN) [6]: 481 photons per pixel, reduced to | fluorescence intensity, Kidney (MEAN) [6]: 555 photons per pixel, reduced to | fluorescence intensity, Liver (MEAN) [6]: 1868 photons per pixel, reduced to | fluorescence intensity, Lungs (MEAN) [6]: 212 photons per pixel, reduced to | fluorescence intensity, Muscle (MEAN) [6]: 32 photons per pixel, reduced to | fluorescence intensity, Ovary (MEAN) [6]: 4018 photons per pixel, reduced to | fluorescence intensity, Pancreas (MEAN) [6]: 202 photons per pixel, reduced to | fluorescence intensity, Salivary glands (MEAN) [6]: 268 photons per pixel, reduced to | fluorescence intensity, Spleen (MEAN) [6]: 342 photons per pixel, reduced to | fluorescence intensity, Uterus (MEAN) [6]: 951 photons per pixel, reduced to | fluorescence intensity, Adrenal glands (MEAN) [7]: 1135 photons per pixel, reduced to | fluorescence intensity, Brain (MEAN) [7]: 43 photons per pixel, reduced to | fluorescence intensity, Fat (MEAN) [7]: 159 photons per pixel, reduced to | fluorescence intensity, Heart (MEAN) [7]: 113 photons per pixel, reduced to | fluorescence intensity, Intestine (MEAN) [7]: 297 photons per pixel, reduced to | fluorescence intensity, Kidney (MEAN) [7]: 365 photons per pixel, reduced to | fluorescence intensity, Liver (MEAN) [7]: 1136 photons per pixel, reduced to | fluorescence intensity, Lungs (MEAN) [7]: 120 photons per pixel, reduced to | fluorescence intensity, Muscle (MEAN) [7]: 3 photons per pixel, reduced to | fluorescence intensity, Ovary (MEAN) [7]: 2397 photons per pixel, reduced to | fluorescence intensity, Pancreas (MEAN) [7]: 102 photons per pixel, reduced to | fluorescence intensity, Salivary glands (MEAN) [7]: 237 photons per pixel, reduced to | fluorescence intensity, Spleen (MEAN) [7]: 330 photons per pixel, reduced to | fluorescence intensity, Uterus (MEAN) [7]: 514 photons per pixel, reduced to | fluorescence intensity, Adrenal gland (MEAN) [8]: 1688 photons per pixel, reduced to | fluorescence intensity, Brain (MEAN) [8]: 90 photons per pixel, reduced to | fluorescence intensity, Fat (MEAN) [8]: 176 photons per pixel, reduced to | fluorescence intensity, Heart (MEAN) [8]: 80 photons per pixel, reduced to | fluorescence intensity, Intestine (MEAN) [8]: 279 photons per pixel, reduced to | fluorescence intensity, Kidney (MEAN) [8]: 383 photons per pixel, reduced to | fluorescence intensity, Liver (MEAN) [8]: 996 photons per pixel, reduced to | fluorescence intensity, Lungs (MEAN) [8]: 53 photons per pixel, reduced to | fluorescence intensity, Muscle (MEAN) [8]: 254 photons per pixel, reduced to | fluorescence intensity, Ovary (MEAN) [8]: 2319 photons per pixel, reduced to | fluorescence intensity, Pancreas (MEAN) [8]: 297 photons per pixel, reduced to | fluorescence intensity, Salivary glands (MEAN) [8]: 120 photons per pixel, reduced to | fluorescence intensity, Spleen (MEAN) [8]: 229 photons per pixel, reduced to | fluorescence intensity, Uterus (MEAN) [8]: 563 photons per pixel, reduced to | fluorescence intensity, Adrenal glands (MEAN) [9]: 660.62 photons per pixel, reduced to | fluorescence intensity, Brain (MEAN) [9]: 40.28 photons per pixel, reduced to | fluorescence intensity, Fat (MEAN) [9]: 164.55 photons per pixel, reduced to | fluorescence intensity, Heart (MEAN) [9]: 117.29 photons per pixel, reduced to | fluorescence intensity, Intestine (MEAN) [9]: 214.02 photons per pixel, reduced to | fluorescence intensity, Kidneys (MEAN) [9]: 391.45 photons per pixel, reduced to | fluorescence intensity, Liver (MEAN) [9]: 676.60 photons per pixel, reduced to | fluorescence intensity, Lungs (MEAN) [9]: 1.35 photons per pixel, reduced to | fluorescence intensity, Muscle (MEAN) [9]: 16.21 photons per pixel, reduced to | fluorescence intensity, Ovary (MEAN) [9]: 1614.45 photons per pixel, reduced to | fluorescence intensity, Pancreas (MEAN) [9]: 125.11 photons per pixel, reduced to | fluorescence intensity, Salivary glands (MEAN) [9]: 216.84 photons per pixel, reduced to | fluorescence intensity, Spleen (MEAN) [9]: 171.93 photons per pixel, reduced to | fluorescence intensity, Uterus (MEAN) [9]: 697.92 photons per pixel, reduced to

Reference: patent US9707305B2, “Formulas for diagnosing and treating hormone-dependent cancers and cancers of the organs responsible for steroid hormone synthesis” (Commissariat à l'énergie atomique et aux énergies …, priority 2011, dated 2017)
